Laboratory results published in patent US6184207A, “Inhibitors of peptide binding to MHC class II proteins” (Zeneca Limited, priority 1996, dated 2001).

Columns and labels:
HLA-DR4Dw4 = target: T1, HLA-DR4Dw4 (Homo sapiens, UniProt P01903+P01911, A100K/A169T/F76Y/I96L/K127E/L162R/M171V/N62H/P40V/Q125Y/R42H/S133A/S149N/S66Y/V115G/V209L/W38E); assay: Test A: Purified HLA-DR peptide in vitro binding assay; conditions: inhibition of biotin-FHA 307-320 binding to purified HLA-DR4Dw4, 48 hours
T1 construct: a cDNA encoding the β chain is cloned into the transfer vector pAcUW1; made in house; host or cells: Sf21 insect cells, double-recombinant baculovirus
Description: The utility of the peptides of the formula I, or a pharmaceutically acceptable salt thereof, may be assessed using a variety of standard tests and clinical studies, including those described in International Patent Application, Publication Nos. WO92/02543, WO93/05011 and WO95/07707 (or modifications thereof) and those described below. The peptides of formula I show significant activity in one or more of such tests or studies. Test A: Purified HLA-DR peptide in vitro binding assay. […]. […] The reaction is stopped by adding 2M sulphuric acid (10 μl per well) and the absorbance read at 450 nm to quantify the amount of peptide bound. The inhibitory activity of peptides is obtained by plotting absorbance against concentration. […]
A cDNA encoding the sequence of the α polypeptide is cloned into the transfer vector pacYM1 [Matsuura, Y; Possce, RD; Overton, HA & Bishop, DHL (1987) J. Gen. […] The molecular genetic techniques used to construct the recombinant vectors are likewise readily available in the literature and are most fully described by Sambrook, J; Fritsch, EF & Maniatis T, (1989) [Molecular Cloning. […]

BALB/C mice = assay: Test C: Peptide stimulated DTH (delayed type hypersensitivity) in BALB/C mice; format: in vivo; conditions: ovalbumin DTH footpad swelling, 3-day osmotic mini-pumps
Protocol: Test C: Peptide stimulated DTH (delayed type hypersensitivity) in BALB/C mice. […] Balb/c female mice (18-20 g), 5 per group, were immunised sub-cutaneously on the flank with 0.1 ml of an emulsion of ovalbumin (Sigma) (2 mg/ml in saline) mixed 1:1 (v/v) with complete Freunds adjuvant (Sigma). Seven days later footpad thickness was detemined using a dual caliper micrometer followed by a challenge in one hind footpad with a 30 μl sub-plantar injection of 1% heat-aggregated ovalbumin protein in saline. Twenty-four hours after antigen challenge, footpads were measured and the DTH response calculated as the percentage increase in footpad thickness in the injected footpad compared to contralateral control. Inhibitors were adminstered by 3-day osmotic mini-pumps (Alzet) implanted 24 hours prior to antigen challenge at doses ranging from 10 mg/kg/day to 0.1 μg/kg/day. The degree of inhibition was calculated by substracting the value for swelling of inhibitor treated footpads from that of the vehicle dosed controls, dividing by the control value and multiplying by 100%.

C[C@H](NC(=O)CN1CCCC(NC(=O)[C@@H](NC(=O)[C@H](C)NC(=O)[C@H](C)NC(=O)[C@H](C)NC(=O)[C@H](CCCNC(=N)N)NC(=O)CCCCc2ccccc2)[C@@H](C)O)C1=O)C(=O)Nc1ccc(CC(N)=O)cc1 (stereo partly drawn) [Example 1, Phv-Arg-Ala-Ala-Ala-Thr-II-Ala-Papa-NH2]
concentration showing significant binding to HLA-DR4Dw4 in Test A (HLA-DR4Dw4): ≤ 0.1 µM | dose at which active in Test C (BALB/C mice): < 0.1 mg/kg/day
